Where a name gives a salt, the structure may show the parent alone.
The compounds below were run against T1, h FPR2 (Homo sapiens, UniProt P25090) (assay: Agonistic activity in hFPR2-Aq-CHO cells (FLIPR Calcium 5 fluorescence assay)). Conditions: 11 point half log dilution, final assay concentration from 10µM.
T1 construct: expressed in transfected cells
T1 sequence (P25090 1-351): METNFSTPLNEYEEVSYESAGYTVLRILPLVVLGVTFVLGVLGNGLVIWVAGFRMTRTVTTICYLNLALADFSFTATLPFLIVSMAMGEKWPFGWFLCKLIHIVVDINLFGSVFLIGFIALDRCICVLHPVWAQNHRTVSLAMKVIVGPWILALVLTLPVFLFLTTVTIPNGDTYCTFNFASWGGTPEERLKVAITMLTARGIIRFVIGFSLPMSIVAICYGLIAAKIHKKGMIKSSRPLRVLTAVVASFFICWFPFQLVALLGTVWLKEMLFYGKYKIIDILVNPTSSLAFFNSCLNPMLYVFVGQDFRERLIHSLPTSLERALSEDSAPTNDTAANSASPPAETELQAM
Type: cell-based
Procedure: After washing, the cells are plated at 10,000 cells per well in 40 µL complete medium in a 384-well sterile clear bottom black plate and incubated in a 5% CO2 incubator at 37°C for 18 hours. Plating media is removed from each well by decanting and gentle tapping before 30 µL of 0.5X Calcium 5 dye solution (0.5X FLIPR Calcium 5 dye (Molecular devices, R8186)); HBSS; 20mM HEPES; 2.5mM Probenecid; 0.025% Pluronic F-127; pH adjusted to 7.4) is added to each well and the plate is then incubated at 37°C for 30 minutes. For the assay the plate is equilibrated at room temperature for 10 minutes before placing it in the FLIPR. Compounds are dissolved in DMSO and serially diluted over an 11 point half log (3.16 fold) dilution (2 mM to 20 nM). Compounds are then diluted 1:50 in assay buffer (HBSS; 20mM HEPES; 2.5mM Probenecid; 0.05% gelatin; 0.1% BSA; pH adjusted to 7.4) just before performing the assay. Compounds are finally added to the respective wells of the cell plate (final assay concentration 10 µM to 100 pM) using the FLIPR (e.g. FLIPR-Tetra, Molecular Devices) and fluorescence readings are captured for 5 minutes. The increase in fluorescence from the basal reading in the presence of the compounds is compared with that of the control wells (wells having no compound) to calculate the activity of the compounds. The EC50 values of the compounds can be determined using e.g. Graph pad Prism software.
Assay method for measuring agonistic activity of compounds in hFPR2-Aq-CHO cell
Cryo-vial containing 6x10^6 cells (hFPR1-Gα15-CHO or hFPR2-Aq-CHO) was thawed in a 37°C water bath. Cells were suspended in 10ml of respective complete growth media (F12(1X)HAM media (Gibco; Cat#11765); 10% HI-FBS (Gibco; Cat#10082); 0.4 mg/ml Geneticin (Gibco; Cat#10131); 0.25 mg/ml Zeocin (Invitrogen; Cat#R25001)) in a 15ml centrifuge tube. The cell viability was checked with the help of Trypan Blue dye. Upon washing the cells, those were plated in a 384-well sterile clear bottom black plate (Greiner Bioone Cat# 781091) so that, each well contained 10,000 cells in 40µl complete growth media. The plate was incubated in a 5% CO2 incubator at 37°C for 18 hours. Before assay on the next day, the cell plating media was removed from each well of the plate by decanting and gentle tapping. 30µl of 0.5X Calcium 5 dye solution (0.5X FLIPR Calcium 5 dye (Molecular devices Cat# R8186); HBSS (Invitrogen; Cat#14025); 20mM HEPES (Sigma; Cat#H0887); 2.5mM Probenecid (Sigma; Cat#P8761); 0.025% Pluronic F-127 (Sigma; Cat#P2443); pH adjusted to 7.4) was added to each well. The plate was then incubated at 37°C for 30 minutes. Following which the plate was equilibrated at room temperature for 10 minutes before placing it in a 384 well FLIPR for assay. Compounds were dissolved in DMSO and serially diluted following 11 point half log (3.16 fold) dilution with a starting concentration of 2mM (Final assay concentration 10µM). Aliquots of above mentioned each dilution was mixed with assay buffer (HBSS (Invitrogen; Cat#14025); 20mM HEPES (Sigma; Cat#H0887); 2.5mM Probenecid (Sigma; Cat#P8761); 0.05% gelatin (Sigma; Cat#G1890); 0.1% BSA (Sigma; Cat#A3059); pH adjusted to 7.4) just before performing the assay. Compounds were added to the respective wells of the assay ready cell plate with the help of the FLIPR (FLIPR Tetra) and fluorescence readings were captured for 5 minutes to measure any agonistic response of the compounds. The increase in fluorescence readings from the basal reading in presence of the compounds were compared with that of the control wells (wells having no compound) to calculate the agonistic activity of the compounds. The EC50 values of the compounds were determined using the Graph pad Prism software.

Row | SMILES | EC50
1 | Cc1ccc(N2CC[C@@H](NC(=O)Nc3cc(C)ns3)[C@H](c3ccc(Cl)cn3)C2)nn1 (relative stereo) [Ex-33, trans-1-[5-chloro-1'-(6-methyl-pyridazin-3-yl)-1',2',3',4',5',6'-hexahydro-[2,3']bipyridinyl-4'-yl]-3-(3-methyl-isothiazol-5-yl)-urea] | 11 nM
2 | COc1ccc([C@@H]2CN(CCO)CC[C@H]2NC(=O)Nc2ccccc2)nc1 (relative stereo) [Ex-164, trans-1-[1-(2-Hydroxy-ethyl)-3-(5-methoxy-pyridin-2-yl)-piperidin-4-yl]-3-phenyl-urea] | 56 nM
3 | O=C(Nc1ccc(Cl)cc1)N[C@@H]1CCN(CC2CCOCC2)C[C@H]1c1ccc(Cl)s1 (single isomer, unassigned) [Ex-85, trans-1-(4-chlorophenyl)-3-(3-(5-chlorothiophen-2-yl)-1-((tetrahydro-2H-pyran-4-yl)methyl)piperidin-4-yl)urea] | 14 nM
4 | Cc1cc(NC(=O)N[C@@H]2CCN(c3cncc(C)n3)C[C@H]2c2ccc(Cl)cn2)sn1 (relative stereo) [Ex-34, trans-1-[5-chloro-1'-(6-methyl-pyrazin-2-yl)-1',2',3',4',5',6'-hexahydro-[2,3']bipyridinyl-4'-yl]-3-(3-methyl-isothiazol-5-yl)-urea] | 4 nM
5 | COc1ccc([C@@H]2CN(C(=O)CN(C)C)CC[C@H]2NC(=O)Nc2ccc(Cl)cc2)nc1 (single isomer, unassigned) [Ex-189, trans-1-(4-chlorophenyl)-3-[1-[2-(dimethylamino)acetyl]-3-(5-methoxypyridin-2-yl)piperidin-4-yl]urea] | 1.7 nM
6 | COc1ccc([C@@H]2CN(Cc3cncc(C)c3)CC[C@H]2NC(=O)Nc2ccc(Cl)cc2)nc1 (relative stereo) [Ex-64, trans-1-(4-chlorophenyl)-3-(3-(5-methoxypyridin-2-yl)-1-((5-methylpyridin-3-yl)methyl)piperidin-4-yl)urea] | 0.06 nM
7 | COc1ccc([C@@H]2CN(C)CC[C@H]2NC(=O)Nc2ccc(Cl)cc2)nc1 (relative stereo) [Ex-126, trans-1-(4-Chlorophenyl)-3-[3-(5-methoxy-pyridin-2-yl)-1-methyl-piperidin-4-yl]-urea] | 1.2 nM
8 | COc1ccc([C@@H]2CN(Cc3cnc(OC)nc3)CC[C@H]2NC(=O)Nc2ccc(Cl)cc2)nc1 (relative stereo) [Ex-66, trans-1-(4-chlorophenyl)-3-[3-(5-methoxypyridin-2-yl)-1-[(2-methoxypyrimidin-5-yl)methyl]piperidin-4-yl]urea] | 0.2 nM
9 | COCCN1CC[C@@H](NC(=O)Nc2ccc(C#N)cc2)[C@H](c2ccc(OC)cn2)C1 (relative stereo) [Ex-154, trans-1-(4-Cyano-phenyl)-3-[1-(2-methoxy-ethyl)-3-(5-methoxy-pyridin-2-yl)-piperidin-4-yl]-urea] | 10 nM
10 | COc1ccc([C@@H]2CN(CC3CC(OC)C3)CC[C@H]2NC(=O)Nc2ccc(Cl)cc2)nc1 (single isomer, unassigned) [Ex-195, trans-1-(4-chloro-phenyl)-3-[5-methoxy-1'-(3-methoxy-cyclobutylmethyl)-1',2',3',4',5',6'-hexahydro-[2,3']bipyridinyl-4'-yl]-urea] | 0.5 nM
11 | COc1ccc([C@@H]2CN(c3ccc(F)cc3)C(=O)C[C@H]2NC(=O)Nc2ccc(Cl)cc2)nc1 (relative stereo) [Ex-10, trans-1-(4-chlorophenyl)-3-[1-(4-fluorophenyl)-5-(5-methoxypyridin-2-yl)-2-oxopiperidin-4-yl]urea] | 0.05 nM

Results, then the compound that gave them:

Row | EC50 | SMILES
12 | 33 nM | O=C(Nc1ccc(Cl)cc1)N[C@@H]1CCN(CC2CCNCC2)C[C@H]1c1ccc(Cl)s1 (single isomer, unassigned) [Ex-84, trans-1-(4-chlorophenyl)-3-[3-(5-chlorothiophen-2-yl)-1-(piperidin-4-ylmethyl)piperidin-4-yl]urea dihydrochloride]
13 | 0.8 nM | COc1cnc([C@@H]2CN(CC3CCC(OC)CC3)CC[C@H]2NC(=O)Nc2ccc(Cl)cc2)c(F)c1 (relative stereo) [Ex-223, trans-1-(4-Chloro-phenyl)-3-[3-fluoro-5-methoxy-1'-(4-methoxy-cyclohexylmethyl)-1',2',3',4',5',6'-hexahydro-[2,3']bipyridinyl-4'-yl]-urea]
14 | 17 nM | CNCCC(=O)N1CC[C@@H](NC(=O)Nc2cc(C)ns2)[C@H](c2ccc(OC)cn2)C1 (relative stereo) [Ex-135, trans-1-[3-(5-Methoxy-pyridin-2-yl)-1-(3-methylamino-propanoyl)-piperidin-4-yl]-3-(3-methyl-isothiazol-5-yl)-urea]
15 | 0.2 nM | COc1ccc([C@@H]2CN(CCCN(C)C)CC[C@H]2NC(=O)Nc2ccc(Cl)cc2)nc1 (relative stereo) [Ex-111, trans-1-(4-chloro-phenyl)-3-[1'-(3-dimethylaminopropyl)-5-methoxy-1',2',3',4',5',6'-hexahydro-[2,3']bipyridinyl-4'-yl]-urea]
16 | 55 nM | CS(=O)(=O)n1ccc(CN2CC[C@@H](NC(=O)Nc3ccccc3)[C@H](c3ccc(Cl)s3)C2)n1 (single isomer, unassigned) [Ex-57, trans-1-(-3-(5-chlorothiophen-2-yl)-1-((1-(methylsulfonyl)-1H-pyrazol-3-yl)methyl)piperidin-4-yl)-3-phenylurea]
17 | 3 nM | Cc1cnc(N2CC[C@@H](NC(=O)Nc3cc(C)ns3)[C@H](c3ccc(Cl)cn3)C2)cn1 (relative stereo) [Ex-41, trans-1-[5-chloro-1'-(5-methyl-pyrazin-2-yl)-1',2',3',4',5',6'-hexahydro-[2,3']bipyridinyl-4'-yl]-3-(3-methyl-isothiazol-5-yl)-urea]
18 | 89 nM | COc1ccc([C@@H]2CN(C(=O)C3CC(O)C3)CC[C@H]2NC(=O)Nc2cc(C)ns2)nc1 (single isomer, unassigned) [Ex-183, trans-1-[1'-(3-hydroxy-cyclobutanecarbonyl)-5-methoxy-1',2',3',4',5',6'-hexahydro-[2,3']bipyridinyl-4'-yl]-3-(3-methyl-isothiazol-5-yl)-urea]

Same assay, conditions: agonistic response at 0.1µM

Row | activation at 0.1 µM | SMILES
19 | 23% | COc1ccc([C@@H]2CNCC[C@H]2NC(=O)Nc2ccc(Cl)cc2)nc1 (relative stereo) [Ex-169, trans-1-(4-Chlorophenyl)-3-[3-(5-methoxy-pyridin-2-yl)-piperidin-4-yl]-urea]
20 | 17% | COc1ccc([C@@H]2CN(CC(F)F)CC[C@H]2NC(=O)Nc2ccc(C#N)cc2)nc1 (relative stereo) [Ex-175, trans-1-(4-Cyano-phenyl)-3-[1-(2,2-difluoro-ethyl)-3-(5-methoxy-pyridin-2-yl)-piperidin-4-yl]-urea]
21 | 17% | COc1ccc([C@@H]2CN(c3ccncn3)C(=O)C[C@H]2NC(=O)Nc2ccc(Cl)cc2)nc1 (relative stereo) [Ex-25, trans-1-(4-chlorophenyl)-3-[5-(5-methoxypyridin-2-yl)-2-oxo-1-(pyrimidin-4-yl)piperidin-4-yl]urea]

— patent EP3789378A1, “PIPERIDINES OR PIPERIDONES SUBSTITUTED WITH UREA AND HETEROARYL” (Grünenthal GmbH, priority 2019, dated 2021)
